Reference: US9796704B2, “Substituted quinazolines as receptor-type kinase inhibitors” (Symphony Evolution, Inc., priority 2002, dated 2017)

Tests used:
[1] = biological target: KDR (Homo sapiens (Human), UniProt P35968); experiment: KDR kinase inhibition, luciferase-coupled chemiluminescent assay (LCCA); conditions: read-out: KDR IC50
Procedure: Kinase activity and compound inhibition are investigated using one or more of the three assay formats described below. The ATP concentrations are selected near its Michaelis-Menten constant (KM) for each individual kinase. Dose-response experiments are performed at ten different inhibitor concentrations in a 384-well plate format. […] Typically H is close to unity.
In the LCCA assays, kinase activity is measured by the ATP consumption that is accurately measured by luciferase-coupled chemiluminescence. Greiner 384-well white clear bottom medium binding plates are used for LCCA. Briefly the kinase reaction is initiated by mixing compounds, ATP and kinases in a 20 μL volume. At the end of the kinase reaction, a 20 μL luciferase-luciferin mix is added and the chemiluminescent signal is read on a Wallac Victor^2 reader.

[2] = biological target: EGFR (Homo sapiens (Human), UniProt P00533); experiment: EGFR kinase inhibition, luciferase-coupled chemiluminescent assay (LCCA); conditions: read-out: EGFR IC50
[3] = biological target: EphA2 (Homo sapiens (Human), UniProt P29317); experiment: EphA2 kinase inhibition, luciferase-coupled chemiluminescent assay (LCCA); conditions: read-out: EphA2 IC50
[4] = biological target: EphB4 (Homo sapiens (Human), UniProt P54760); experiment: EphB4 kinase inhibition, 33P phosphoryl transfer assay (radiometric); assay type: biochemical
EphB4, sequence (P54760 605-890): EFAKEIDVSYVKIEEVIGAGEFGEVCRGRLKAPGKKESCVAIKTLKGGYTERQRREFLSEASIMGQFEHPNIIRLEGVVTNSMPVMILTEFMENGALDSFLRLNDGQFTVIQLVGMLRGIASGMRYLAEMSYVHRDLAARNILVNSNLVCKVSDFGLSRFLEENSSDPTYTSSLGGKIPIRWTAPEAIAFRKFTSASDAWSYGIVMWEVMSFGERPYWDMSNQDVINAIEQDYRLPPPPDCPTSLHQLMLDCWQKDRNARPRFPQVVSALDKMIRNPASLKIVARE

EphA2, sequence (P29317 598-890): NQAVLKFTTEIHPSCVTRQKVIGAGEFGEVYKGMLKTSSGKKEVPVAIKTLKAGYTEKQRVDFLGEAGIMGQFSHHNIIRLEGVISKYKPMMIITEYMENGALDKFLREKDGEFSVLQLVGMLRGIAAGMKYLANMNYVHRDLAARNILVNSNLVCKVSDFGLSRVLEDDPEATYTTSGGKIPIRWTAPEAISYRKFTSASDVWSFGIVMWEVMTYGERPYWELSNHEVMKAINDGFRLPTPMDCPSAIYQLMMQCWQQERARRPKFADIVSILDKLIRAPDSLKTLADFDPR
EGFR, sequence (P00533 672-1210): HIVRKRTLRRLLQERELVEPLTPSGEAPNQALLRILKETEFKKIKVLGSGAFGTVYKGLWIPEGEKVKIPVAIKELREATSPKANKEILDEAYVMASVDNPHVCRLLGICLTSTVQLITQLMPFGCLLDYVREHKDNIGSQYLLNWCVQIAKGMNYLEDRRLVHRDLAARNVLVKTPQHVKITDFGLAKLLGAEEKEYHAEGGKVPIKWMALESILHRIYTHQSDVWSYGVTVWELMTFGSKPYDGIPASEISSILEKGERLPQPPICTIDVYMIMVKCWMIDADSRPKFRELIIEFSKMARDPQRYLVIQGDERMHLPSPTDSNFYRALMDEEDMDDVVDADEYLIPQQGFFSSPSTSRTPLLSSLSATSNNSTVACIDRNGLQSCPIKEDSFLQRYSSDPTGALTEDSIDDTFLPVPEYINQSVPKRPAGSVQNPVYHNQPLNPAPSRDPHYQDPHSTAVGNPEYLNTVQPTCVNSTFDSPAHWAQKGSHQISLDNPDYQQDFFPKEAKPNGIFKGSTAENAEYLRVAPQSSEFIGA
KDR, sequence (P35968 807-1356): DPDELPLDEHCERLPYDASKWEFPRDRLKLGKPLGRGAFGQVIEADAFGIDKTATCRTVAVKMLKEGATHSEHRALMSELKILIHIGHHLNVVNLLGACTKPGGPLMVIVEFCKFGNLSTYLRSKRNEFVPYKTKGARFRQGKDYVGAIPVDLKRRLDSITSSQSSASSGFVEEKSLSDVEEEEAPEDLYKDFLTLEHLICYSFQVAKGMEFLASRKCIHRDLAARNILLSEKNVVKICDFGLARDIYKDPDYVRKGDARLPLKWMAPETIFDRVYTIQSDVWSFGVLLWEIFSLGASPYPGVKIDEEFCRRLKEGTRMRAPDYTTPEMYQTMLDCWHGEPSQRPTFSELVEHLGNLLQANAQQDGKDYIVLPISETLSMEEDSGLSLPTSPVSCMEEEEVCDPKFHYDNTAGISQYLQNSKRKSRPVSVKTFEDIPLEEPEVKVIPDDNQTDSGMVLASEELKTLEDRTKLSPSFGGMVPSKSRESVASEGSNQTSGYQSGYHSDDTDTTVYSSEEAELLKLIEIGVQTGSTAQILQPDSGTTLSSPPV

SMILES	IC50 [1] [µM]	IC50 [2] [µM]	IC50 [3] [µM]	IC50 [4] [µM]
COc1cc2c(Nc3ccc(Br)c(Cl)c3)ncnc2cc1O[C@H]1CO[C@H]2[C@@H]1OC[C@@H]2OC [Example 73, 1,4:3,6-dianhydro-2-O-[4-[(4-bromo-3-chlorophenyl)amino]-6-(methyloxy)quinazolin-7-yl]-5-O-methyl-L-iditol]	< 0.05			
COc1cc2c(Nc3ccc(Br)c(Cl)c3)ncnc2cc1O[C@H]1CO[C@H]2[C@@H]1OC[C@H]2OC [Example 78, 1,4:3,6-dianhydro-2-O-[4-[(4-bromo-3-chlorophenyl)amino]-6-(methyloxy)quinazolin-7-yl]-5-O-methyl-D-glucitol]	< 0.05			
COc1cc2c(Nc3c(F)cccc3F)ncnc2cc1O[C@@H]1CO[C@@H]2[C@H]1OC[C@H]2F [Example 87, 1,4:3,6-dianhydro-2-deoxy-5-O-[4-[(2,6-difluorophenyl)amino]-6-(methyloxy)quinazolin-7-yl]-2-fluoro-D-iditol]	< 0.05	< 0.05		
COc1cc2c(Nc3ccc(F)cc3F)ncnc2cc1O[C@@H]1CO[C@@H]2[C@H]1OC[C@H]2F [Example 90, 1,4:3,6-dianhydro-2-deoxy-5-O-[4-[(2,4-difluorophenyl)amino]-6-(methyloxy)quinazolin-7-yl]-2-fluoro-D-iditol]	< 0.05	< 0.05		
COc1cc2c(Nc3ccc(Cl)cc3F)ncnc2cc1O[C@@H]1CO[C@@H]2[C@H]1OC[C@H]2F [Example 109, 1,4:3,6-dianhydro-5-O-[4-[(4-chloro-2-fluorophenyl)amino]-6-(methyloxy)quinazolin-7-yl]-2-deoxy-2-fluoro-D-iditol]	< 0.05	< 0.05		
COc1cc2c(Nc3c(F)cc(F)cc3Br)ncnc2cc1O[C@@H]1CO[C@@H]2[C@H]1OC[C@H]2F [Example 120, 1,4:3,6-dianhydro-5-O-[4-[(2-bromo-4,6-difluorophenyl)amino]-6-(methyloxy)quinazolin-7-yl]-2-deoxy-2-fluoro-D-iditol]	< 0.05	< 0.05		
COc1cc2c(Nc3cc(C(F)(F)F)ccc3Cl)ncnc2cc1O[C@@H]1CO[C@@H]2[C@H]1OC[C@H]2F [Example 122, 1,4:3,6-dianhydro-5-O-[4-{[2-chloro-5-(trifluoromethyl)phenyl]amino}-6-(methyloxy)quinazolin-7-yl]-2-deoxy-2-fluoro-D-iditol]	< 0.05	< 0.05		
COc1ccc(OC)c(Nc2ncnc3cc(O[C@@H]4CO[C@@H]5[C@H]4OC[C@H]5F)c(OC)cc23)c1 [Example 134, 1,4:3,6-dianhydro-5-O-[4-{[2,5-bis(methyloxy)phenyl]amino}-6-(methyloxy)quinazolin-7-yl]-2-deoxy-2-fluoro-D-iditol]	< 0.05	< 0.05		
COc1cc2c(Nc3ccc(Cl)c(Cl)c3)ncnc2cc1OCc1noc(C(C)(C)C)n1 [Example 157, N-(3,4-dichlorophenyl)-7-({[5-(1,1-dimethylethyl)-1,2,4-oxadiazol-3-yl]methyl}oxy)-6-(methyloxy)quinazolin-4-amine]	< 0.05	< 0.05		
COc1cc2c(Nc3ccc(Cl)c(Cl)c3)ncnc2cc1OCc1noc(-c2cccc(C(F)(F)F)c2)n1 [Example 166, N-(3,4-dichlorophenyl)-6-(methyloxy)-7-[({5-[3-(trifluoromethyl)phenyl]-1,2,4-oxadiazol-3-yl}methyl)oxy]quinazolin-4-amine]	< 0.05	< 0.05		
COc1cc2c(Nc3ccc(Cl)c(Cl)c3)ncnc2cc1OCc1csc(C2CCCNC2)n1 (stereo not drawn) [Example 251, N-(3,4-dichlorophenyl)-6-(methyloxy)-7-{[(2-piperidin-3-yl-1,3-thiazol-4-yl)methyl]oxy}quinazolin-4-amine]		< 0.05	1 to 20	0.05 to 1
CCN1CCCCC1c1nc(COc2cc3ncnc(Nc4ccc(Cl)c(Cl)c4)c3cc2OC)cs1 (stereo not drawn) [Example 253, N-(3,4-dichlorophenyl)-7-({[2-(1-ethylpiperidin-2-yl)-1,3-thiazol-4-yl]methyl}oxy)-6-(methyloxy)quinazolin-4-amine]		< 0.05	1 to 20	1 to 20
CCN1CCCC(c2nc(COc3cc4ncnc(Nc5ccc(Cl)c(Cl)c5)c4cc3OC)cs2)C1 (stereo not drawn) [Example 254, N-(3,4-dichlorophenyl)-7-({[2-(1-ethylpiperidin-3-yl)-1,3-thiazol-4-yl]methyl}oxy)-6-(methyloxy)quinazolin-4-amine]		< 0.05	1 to 20	0.05 to 1
COCCN1CCCOC(COc2cc3ncnc(Nc4ccc(Cl)c(Cl)c4)c3cc2OC)C1 (stereo not drawn) [Example 260, N-(3,4-dichlorophenyl)-6-(methyloxy)-7-[({4-[2-(methyloxy)ethyl]-1,4-oxazepan-2-yl}methyl)oxy]quinazolin-4-amine]		< 0.05	1 to 20	0.05 to 1
COc1cc2c(Nc3ccc(Cl)c(Cl)c3)ncnc2cc1OCC1CN(C(C)C)CCCO1 (stereo not drawn) [Example 261, N-(3,4-dichlorophenyl)-7-({[4-(1-methylethyl)-1,4-oxazepan-2-yl]methyl}oxy)-6-(methyloxy)quinazolin-4-amine]		< 0.05	1 to 20	0.05 to 1
COc1cc2c(Nc3ccc(Cl)c(Cl)c3)ncnc2cc1OCc1csc(N2CCNCC2)n1 [Example 262, N-(3,4-dichlorophenyl)-6-(methyloxy)-7-{[(2-piperazin-1-yl-1,3-thiazol-4-yl)methyl]oxy}quinazolin-4-amine]		< 0.05	1 to 20	0.05 to 1
COc1cc2c(Nc3ccc(Cl)c(Cl)c3)ncnc2cc1OCc1noc(C2CCCN2)n1 (stereo not drawn) [Example 263, N-(3,4-dichlorophenyl)-6-(methyloxy)-7-{[(5-pyrrolidin-2-yl-1,2,4-oxadiazol-3-yl)methyl]oxy}quinazolin-4-amine]		< 0.05	1 to 20	0.05 to 1
CCN1CCCC1c1nc(COc2cc3ncnc(Nc4ccc(Cl)c(Cl)c4)c3cc2OC)no1 (stereo not drawn) [Example 264, N-(3,4-dichlorophenyl)-7-({[5-(1-ethylpyrrolidin-2-yl)-1,2,4-oxadiazol-3-yl]methyl}oxy)-6-(methyloxy)quinazolin-4-amine]		< 0.05	1 to 20	0.05 to 1
COc1cc2c(Nc3ccc(Cl)c(Cl)c3)ncnc2cc1OCc1nc([C@@H]2CCCN2C)no1 [Example 265, N-(3,4-dichlorophenyl)-6-(methyloxy)-7-[({3-[(2S)-1-methylpyrrolidin-2-yl]-1,2,4-oxadiazol-5-yl}methyl)oxy]quinazolin-4-amine]		< 0.05	1 to 20	0.05 to 1
COc1cc2c(Nc3ccc(Cl)c(Cl)c3)ncnc2cc1OCc1csc([C@@H]2CCCN2C)n1 [Example 266, N-(3,4-dichlorophenyl)-6-(methyloxy)-7-[({2-[(2S)-1-methylpyrrolidin-2-yl]-1,3-thiazol-4-yl}methyl)oxy]quinazolin-4-amine]		< 0.05	1 to 20	0.05 to 1
CCN1CCN(c2nc(COc3cc4ncnc(Nc5ccc(Cl)c(Cl)c5)c4cc3OC)cs2)CC1 [Example 267, N-(3,4-dichlorophenyl)-7-({[2-(4-ethylpiperazin-1-yl)-1,3-thiazol-4-yl]methyl}oxy)-6-(methyloxy)quinazolin-4-amine]		< 0.05	1 to 20	1 to 20
COc1cc2c(Nc3ccc(Cl)c(Cl)c3)ncnc2cc1OCC1CN(C)CCN1C (stereo not drawn) [Example 268, N-(3,4-dichlorophenyl)-7-{[(1,4-dimethylpiperazin-2-yl)methyl]oxy}-6-(methyloxy)quinazolin-4-amine]		< 0.05	1 to 20	0.05 to 1
COc1cc2c(Nc3ccc(Cl)c(Cl)c3)ncnc2cc1OCC1CN(C(C)C)CCO1 (stereo not drawn) [Example 270, N-(3,4-dichlorophenyl)-7-({[4-(1-methylethyl)morpholin-2-yl]methyl}oxy)-6-(methyloxy)quinazolin-4-amine]		< 0.05	1 to 20	0.05 to 1
COc1cc2c(Nc3ccc(Cl)c(Cl)c3)ncnc2cc1OCC1CN(CCCc2ccccc2)CCO1 (stereo not drawn) [Example 271, N-(3,4-dichlorophenyl)-6-(methyloxy)-7-({[4-(3-phenylpropyl)morpholin-2-yl]methyl}oxy)quinazolin-4-amine]		< 0.05	1 to 20	0.05 to 1
COCCN1CCOC(COc2cc3ncnc(Nc4ccc(Cl)c(Cl)c4)c3cc2OC)C1 (stereo not drawn) [Example 272, N-(3,4-dichlorophenyl)-6-(methyloxy)-7-[({4-[2-(methyloxy)ethyl]morpholin-2-yl}methyl)oxy]quinazolin-4-amine]		< 0.05	1 to 20	0.05 to 1
CCOC(=O)C(C)N1CCOC(COc2cc3ncnc(Nc4ccc(Cl)c(Cl)c4)c3cc2OC)C1 (stereo not drawn) [Example 273, ethyl 2-[2-({[4-[(3,4-dichlorophenyl)amino]-6-(methyloxy)quinazolin-7-yl]oxy}methyl)morpholin-4-yl]propanoate]		< 0.05	1 to 20	1 to 20
COc1cc2c(Nc3ccc(Cl)c(Cl)c3)ncnc2cc1OCC1CN(CCOCCO)CCO1 (stereo not drawn) [Example 275, 2-({2-[2-({[4-[(3,4-dichlorophenyl)amino]-6-(methyloxy)quinazolin-7-yl]oxy}methyl)morpholin-4-yl]ethyl}oxy)ethanol]		< 0.05	1 to 20	1 to 20
COc1cc2c(Nc3ccc(Cl)c(Cl)c3)ncnc2cc1OCC1CN(CCCCCC#N)CCO1 (stereo not drawn) [Example 277, 6-[2-({[4-[(3,4-dichlorophenyl)amino]-6-(methyloxy)quinazolin-7-yl]oxy}methyl)morpholin-4-yl]hexanenitrile]		< 0.05	1 to 20	0.05 to 1
